# What was measured:
# [1] = tested on: Protein cereblon/Epidermal growth factor receptor (Homo sapiens), P00533+Q96SW2 [L858R,T790M,C797S]; test: PROTAC activity at CRBN/EGFR L858R/T790M/C797S mutant in human H1975-TM cells assessed as induction of EGFR degradation by measuring maximal efficacy at 300 nM incubated for 24 hrs by Western blot analysis relative to control; type: cell-based
# [2] = Antiproliferative activity against human HI975-TM cells harboring EGFR L858R/T790M/C797S mutant assessed as inhibition of cell growth incubated for 72 hrs by CCK-8 assay; type: functional, cell-based; conditions: H1975-TM
# [3] = molecular target: Protein cereblon/Epidermal growth factor receptor (Homo sapiens, UniProt P00533+Q96SW2, T790M/C797S/L858R); test: PROTAC activity at CRBN/EGFR L858R/T790M/C797S mutant in human H1975-TM cells assessed as induction of EGFR degradation incubated for 24 hrs by Western blot analysis; type: cell-based
# [4] = molecular target: Epidermal growth factor receptor (Homo sapiens, UniProt P00533, C797S/L858R/T790M); test: Binding affinity to EGFR L858R/T790M/C797S mutant (unknown origin) assessed as dissociation constant incubated for 10 mins under dark condition by MST analysis
# [5] = tested on: Protein cereblon/Epidermal growth factor receptor (Homo sapiens), P00533+Q96SW2 [L858R,T790M,C797S]; test: PROTAC activity at CRBN/EGFR L858R/T790M/C797S mutant in human H1975-TM cells assessed as induction of EGFR degradation by measuring remaining activity at 100 nM incubated for 24 hrs by Western blot analysis (reference value: 100%); type: cell-based
# [6] = Antiproliferative activity against human PC-9-TM cells harboring EGFR exon 19 deletion/T790M/[…] mutant assessed as inhibition of cell proliferation incubated for 72 hrs by CCK8 assay; type: functional, cell-based
# A549 = test: Antiproliferative activity against human A549 cells harboring wildtype EGFR assessed as inhibition of cell proliferation incubated for 72 hrs by CCK8 assay; type: functional, cell-based; conditions: A549, 72 h
# PC-9 = test: Antiproliferative activity against human PC-9 cells harboring EGFR exon 19 deletion mutant assessed as inhibition of cell proliferation incubated for 72 hrs by CCK8 assay; type: functional, cell-based; conditions: PC-9, 72 h
# NCI-H1975 = test: Antiproliferative activity against human NCI-H1975 cells harboring EGFR L858R/T790M mutant assessed as inhibition of cell proliferation incubated for 72 hrs by CCK8 assay; type: functional, cell-based; conditions: NCI-H1975, 72 h
# [7] = molecular target: von Hippel-Lindau disease tumor suppressor/Epidermal growth factor receptor (Homo sapiens, UniProt P00533+P40337, L858R); test: PROTAC activity at VHL/EGFR L858R mutant in human NCI-H3255 cells assessed as induction of EGFR degradation incubated for 24 hrs by immunoblotting analysis; type: cell-based
# [8] = molecular target: Protein cereblon/Epidermal growth factor receptor (Homo sapiens, UniProt P00533+Q96SW2, T790M/L858R); test: PROTAC activity at CRBN/EGFR L858R/T790M double mutant in human NCI-H1975 cells assessed as induction of EGFR degradation; type: cell-based
# [9] = tested on: Protein cereblon/Epidermal growth factor receptor (Homo sapiens), P00533+Q96SW2 [L858R,T790M,C797S]; test: Induction of EGFR L858R/T790M/C797S mutant in human H1975-TM cells assessed as remaining activity at 1 uM incubated for 6 hrs by Western blot analysis (reference value: 100%); type: cell-based
# Chain of Protein cereblon/Epidermal growth factor receptor (Homo sapiens, UniProt P00533+Q96SW2, T790M/C797S/L858R) (P00533 25-1210 T790M/C797S/L858R limits assumed, stated change not applied): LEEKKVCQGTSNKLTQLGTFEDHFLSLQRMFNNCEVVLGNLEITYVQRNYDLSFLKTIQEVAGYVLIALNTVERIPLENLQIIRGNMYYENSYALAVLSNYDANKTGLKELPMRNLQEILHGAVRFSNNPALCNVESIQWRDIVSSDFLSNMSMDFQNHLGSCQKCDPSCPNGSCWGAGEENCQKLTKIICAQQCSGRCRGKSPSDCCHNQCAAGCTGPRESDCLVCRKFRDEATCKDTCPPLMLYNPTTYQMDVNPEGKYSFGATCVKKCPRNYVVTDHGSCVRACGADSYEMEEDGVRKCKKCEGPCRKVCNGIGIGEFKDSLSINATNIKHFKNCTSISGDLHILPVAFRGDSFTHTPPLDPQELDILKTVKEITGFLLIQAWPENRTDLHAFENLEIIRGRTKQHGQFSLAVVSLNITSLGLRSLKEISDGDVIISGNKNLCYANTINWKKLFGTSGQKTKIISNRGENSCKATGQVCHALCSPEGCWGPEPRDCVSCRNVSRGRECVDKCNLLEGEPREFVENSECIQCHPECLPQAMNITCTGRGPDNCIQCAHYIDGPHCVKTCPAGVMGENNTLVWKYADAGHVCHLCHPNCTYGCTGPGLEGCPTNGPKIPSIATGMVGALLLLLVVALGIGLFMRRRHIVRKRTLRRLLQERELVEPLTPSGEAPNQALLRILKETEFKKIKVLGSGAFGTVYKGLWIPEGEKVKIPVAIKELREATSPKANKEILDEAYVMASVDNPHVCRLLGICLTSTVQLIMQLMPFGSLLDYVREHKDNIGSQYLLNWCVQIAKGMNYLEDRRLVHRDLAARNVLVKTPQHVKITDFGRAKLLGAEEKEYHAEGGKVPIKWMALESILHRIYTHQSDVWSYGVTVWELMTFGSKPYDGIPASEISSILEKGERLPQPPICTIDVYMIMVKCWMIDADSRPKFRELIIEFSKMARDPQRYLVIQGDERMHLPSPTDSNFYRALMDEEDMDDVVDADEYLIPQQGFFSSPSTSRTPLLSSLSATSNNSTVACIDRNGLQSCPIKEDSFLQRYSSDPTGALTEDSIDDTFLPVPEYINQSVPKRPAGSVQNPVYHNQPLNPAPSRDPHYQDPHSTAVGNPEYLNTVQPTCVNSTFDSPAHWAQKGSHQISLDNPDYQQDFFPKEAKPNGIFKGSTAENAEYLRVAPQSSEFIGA
# Chain of Protein cereblon/Epidermal growth factor receptor (Homo sapiens, UniProt P00533+Q96SW2, T790M/C797S/L858R) (Q96SW2 whole entry, stated change not applied): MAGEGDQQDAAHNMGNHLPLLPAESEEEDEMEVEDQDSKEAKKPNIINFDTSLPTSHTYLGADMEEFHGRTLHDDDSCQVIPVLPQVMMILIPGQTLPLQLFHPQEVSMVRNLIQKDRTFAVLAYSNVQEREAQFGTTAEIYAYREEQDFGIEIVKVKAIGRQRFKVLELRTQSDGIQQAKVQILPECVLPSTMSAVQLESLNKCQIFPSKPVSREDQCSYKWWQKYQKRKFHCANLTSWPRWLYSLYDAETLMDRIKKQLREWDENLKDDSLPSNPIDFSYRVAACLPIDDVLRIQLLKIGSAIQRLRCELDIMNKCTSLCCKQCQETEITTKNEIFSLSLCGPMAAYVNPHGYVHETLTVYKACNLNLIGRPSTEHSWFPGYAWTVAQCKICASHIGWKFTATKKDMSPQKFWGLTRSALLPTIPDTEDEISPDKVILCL
# Chain of Protein cereblon/Epidermal growth factor receptor (Homo sapiens, UniProt P00533+Q96SW2, T790M/L858R) (P00533 25-1210 T790M/L858R limits assumed, stated change not applied): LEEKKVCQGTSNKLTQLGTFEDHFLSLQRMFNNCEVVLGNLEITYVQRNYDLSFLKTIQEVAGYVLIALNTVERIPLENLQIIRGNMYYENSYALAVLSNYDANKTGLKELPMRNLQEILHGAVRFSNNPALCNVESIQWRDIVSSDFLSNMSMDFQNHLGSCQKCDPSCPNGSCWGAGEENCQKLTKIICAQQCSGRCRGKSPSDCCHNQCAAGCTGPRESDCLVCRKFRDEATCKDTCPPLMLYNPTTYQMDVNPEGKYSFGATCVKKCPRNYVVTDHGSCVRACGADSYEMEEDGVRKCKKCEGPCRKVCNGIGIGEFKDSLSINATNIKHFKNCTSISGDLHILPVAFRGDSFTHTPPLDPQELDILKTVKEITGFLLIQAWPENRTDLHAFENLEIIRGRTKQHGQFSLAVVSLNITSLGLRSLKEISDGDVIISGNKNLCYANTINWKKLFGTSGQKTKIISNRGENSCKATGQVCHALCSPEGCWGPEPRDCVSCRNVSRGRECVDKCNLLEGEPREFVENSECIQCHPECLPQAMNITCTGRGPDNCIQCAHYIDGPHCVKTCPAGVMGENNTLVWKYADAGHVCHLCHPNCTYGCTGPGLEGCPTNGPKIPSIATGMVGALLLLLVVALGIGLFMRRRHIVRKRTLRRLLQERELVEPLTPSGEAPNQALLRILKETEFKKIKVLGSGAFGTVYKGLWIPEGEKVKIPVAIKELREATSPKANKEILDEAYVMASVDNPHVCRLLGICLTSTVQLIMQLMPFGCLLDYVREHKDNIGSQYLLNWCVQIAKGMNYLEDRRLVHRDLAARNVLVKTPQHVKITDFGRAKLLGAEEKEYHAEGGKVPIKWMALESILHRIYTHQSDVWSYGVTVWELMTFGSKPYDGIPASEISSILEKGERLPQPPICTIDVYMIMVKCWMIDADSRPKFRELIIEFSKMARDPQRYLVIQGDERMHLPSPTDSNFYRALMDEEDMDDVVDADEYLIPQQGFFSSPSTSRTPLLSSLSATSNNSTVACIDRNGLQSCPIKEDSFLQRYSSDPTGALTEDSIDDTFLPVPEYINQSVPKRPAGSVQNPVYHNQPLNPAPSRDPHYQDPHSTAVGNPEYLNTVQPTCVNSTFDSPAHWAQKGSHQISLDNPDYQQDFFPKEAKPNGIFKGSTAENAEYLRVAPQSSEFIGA
# Chain of Protein cereblon/Epidermal growth factor receptor (Homo sapiens, UniProt P00533+Q96SW2, T790M/L858R) (Q96SW2 whole entry, stated change not applied): as the sequence (Q96SW2 whole entry, stated change not applied) above
# Chain of Epidermal growth factor receptor (P00533 25-1210 T790M/C797S/L858R limits assumed): as the sequence (P00533 25-1210 T790M/C797S/L858R limits assumed, stated change not applied) above
SMILES,Emax [1],IC50 [2],DC50 [3],further results
CCS(=O)(=O)n1cc(-c2nc(Nc3ccc(N4CCN(CCCCCC(=O)Nc5cccc6c5CN(C5CCC(=O)NC5=O)C6=O)CC4)cc3)ncc2C(F)(F)F)c2ccccc21 (stereo not drawn),94.6%,62.9 nM,59.4 nM,
CCS(=O)(=O)n1cc(-c2nc(Nc3ccc(N4CCNCC4)cc3)ncc2C(F)(F)F)c2ccccc21,,,,Kd [4]: 47.9 nM; Activity [5]: 106%
CCS(=O)(=O)n1cc(-c2nc(Nc3ccc(N4CCN(CCCCCCCCC(=O)Nc5cccc6c5CN(C5CCC(=O)NC5=O)C6=O)CC4)cc3)ncc2C(F)(F)F)c2ccccc21 (stereo not drawn),> 95%,45.4 nM,33.2 nM,
COc1cc(N2CCC(N3CCN(C)CC3)CC2)ccc1Nc1ncc(Cl)c(Nc2ccccc2P(C)(C)=O)n1 [BRIGATINIB],,562 nM,,IC50 [6]: 404 nM; IC50 (A549): 911 nM; IC50 (PC-9): 110 nM; IC50 (NCI-H1975): 444 nM
CCS(=O)(=O)n1cc(-c2nc(Nc3ccc(N4CCN(C(=O)CCCC(=O)Nc5cccc6c5CN(C5CCC(=O)NC5=O)C6=O)CC4)cc3)ncc2C(F)(F)F)c2ccccc21 (stereo not drawn),80.4%,198 nM,153 nM,
CCS(=O)(=O)n1cc(-c2nc(Nc3ccc(N4CCN(CCCCCCCCCC(=O)Nc5cccc6c5CN(C5CCC(=O)NC5=O)C6=O)CC4)cc3)ncc2C(F)(F)F)c2ccccc21 (stereo not drawn),80.6%,48.6 nM,68.7 nM,
CCS(=O)(=O)n1cc(-c2nc(Nc3ccc(N4CCN(C(=O)CCCCC(=O)Nc5cccc6c5CN(C5CCC(=O)NC5=O)C6=O)CC4)cc3)ncc2C(F)(F)F)c2ccccc21 (stereo not drawn),48.3%,188 nM,> 300 nM,
CCS(=O)(=O)n1cc(-c2nc(Nc3ccc(N4CCN(CCOCCOCC(=O)Nc5cccc6c5CN(C5CCC(=O)NC5=O)C6=O)CC4)cc3)ncc2C(F)(F)F)c2ccccc21 (stereo not drawn),> 95%,34.7 nM,25.3 nM,
CCS(=O)(=O)N1C=C(c2nc(Nc3ccc(N4CCN(CCCCC(=O)Nc5cccc6c5CN(C5CCC(=O)NC5=O)C6=O)CC4)cc3)ncc2C(F)(F)F)C2CC=CC=C21 (stereo not drawn),> 95%,93.5 nM,,
CCS(=O)(=O)n1cc(-c2nc(Nc3ccc(N4CCN(C(=O)CCCCCC(=O)Nc5cccc6c5CN(C5CCC(=O)NC5=O)C6=O)CC4)cc3)ncc2C(F)(F)F)c2ccccc21 (stereo not drawn),80.1%,197 nM,162 nM,
CCS(=O)(=O)n1cc(-c2nc(Nc3ccc4c(ccn4CCN(C)C)c3)ncc2C(F)(F)F)c2ccccc21,,16.3 nM,,
CCS(=O)(=O)n1cc(-c2nc(Nc3ccc(N4CCN(CCCCCCCCCCC(=O)Nc5cccc6c5CN(C5CCC(=O)NC5=O)C6=O)CC4)cc3)ncc2C(F)(F)F)c2ccccc21 (stereo not drawn),77.3%,161 nM,281 nM,
CCS(=O)(=O)n1cc(-c2nc(Nc3ccc(N4CCN(CCCCC(=O)Nc5cccc6c5CN(C5CCC(=O)NC5=O)C6=O)CC4)cc3)ncc2C(F)(F)F)c2ccccc21 (stereo not drawn),,,82.5 nM,
C=CC(=O)Nc1cc(Nc2nccc(-c3cn(C)c4ccccc34)n2)c(OC)cc1N(C)CCN(C)C [OSIMERTINIB],,2240 nM,,
CCS(=O)(=O)n1cc(-c2nc(Nc3ccc(N4CCN(C(=O)CCCCCCC(=O)Nc5cccc6c5CN(C5CCC(=O)NC5=O)C6=O)CC4)cc3)ncc2C(F)(F)F)c2ccccc21 (stereo not drawn),85.9%,278 nM,159 nM,
COc1cc2ncnc(Nc3ccc(F)c(Cl)c3)c2cc1OCCCCCOCCOCCC(=O)N[C@H](C(=O)N1C[C@H](O)C[C@H]1C(=O)NCc1ccc(-c2scnc2C)cc1)C(C)(C)C,,,,DC50 [7]: 39 nM
CCS(=O)(=O)n1cc(-c2nc(Nc3ccc(N4CCN(CC(=O)Nc5cccc6c5CN(C5CCC(=O)NC5=O)C6=O)CC4)cc3)ncc2C(F)(F)F)c2ccccc21 (stereo not drawn),89.3%,88.7 nM,30.1 nM,
CCS(=O)(=O)n1cc(-c2nc(Nc3ccc(N4CCN(CCCCCCCC(=O)Nc5cccc6c5CN(C5CCC(=O)NC5=O)C6=O)CC4)cc3)ncc2C(F)(F)F)c2ccccc21 (stereo not drawn),> 95%,34.2 nM,17 nM,
CCS(=O)(=O)n1cc(-c2nc(Nc3ccc(N4CCN(CCCCCCC(=O)Nc5cccc6c5CN(C5CCC(=O)N(C)C5=O)C6=O)CC4)cc3)ncc2C(F)(F)F)c2ccccc21 (stereo not drawn),,,,Activity [5]: 97.7%
CCS(=O)(=O)n1cc(-c2nc(Nc3ccc(N4CCN(CCC(=O)Nc5cccc6c5CN(C5CCC(=O)NC5=O)C6=O)CC4)cc3)ncc2C(F)(F)F)c2ccccc21 (stereo not drawn),94.7%,59.9 nM,26.1 nM,
CCS(=O)(=O)n1cc(-c2nc(Nc3ccc(N4CCN(C(=O)CCC(=O)Nc5cccc6c5CN(C5CCC(=O)NC5=O)C6=O)CC4)cc3)ncc2C(F)(F)F)c2ccccc21 (stereo not drawn),88.4%,419 nM,180 nM,
CCS(=O)(=O)n1cc(-c2nc(Nc3ccc(N4CCN(CCCC(=O)Nc5cccc6c5CN(C5CCC(=O)NC5=O)C6=O)CC4)cc3)ncc2C(F)(F)F)c2ccccc21 (stereo not drawn),> 95%,62.7 nM,49.7 nM,
O=C1CCC(N2C(=O)c3cccc(NCCOCCOCCOCCN4CCN(c5ccc(-c6ccc7c(c6)C(=O)N(C(C(=O)Nc6nccs6)c6ccccc6)C7)cn5)CC4)c3C2=O)C(=O)N1 (stereo not drawn),,,,DC50 [8]: 5.9 nM
CC(C)C[C@@H](C=O)NC(=O)[C@H](CC(C)C)NC(=O)[C@H](CC(C)C)NC(=O)OCc1ccccc1,,,,Activity [9]: 80.3%
